The target in experiment [1] is T1, δ-opioid receptor (Rattus norvegicus, UniProt P33533).
T1 construct: from tissue; host or cells: rat brain P2 synaptosomal membranes (Sprague-Dawley)
Nature of the experiment: opioid receptor binding competition assay, rat brain P2 synaptosomal membranes (δ). The conditions noted are these: Table 3; versus [3H]DPDPE; rat brain synaptosomes; read-out: Ki(δ). As to the method: (§1) Synaptosomes were preincubated to remove endogenous opioids, washed in excess ice-cold buffer containing protease inhibitor and stored in a glycerol-containing buffer with protease inhibitor at −80° C. as described in Lazarus et al., J. Med. Chem. 34:1350-55 (1991). […] After incubation, the radiolabeled membranes were rapidly filtered on Whatman GF/C glass fiber filters presoaked in 0.1% polyethylenimine in order to optimize the signal-to-noise ratio, washed with ice-cold BSA buffer, and dried at 75-80° C. Radioactivity was determined using EcoLume (ICN, Costa Mesa, Calif.). All compounds were analyzed in duplicate using 5-8 peptide dosages and several synaptosomal preparations in independent repetitions to ensure statistical significance. The affinity constants (Ki) were calculated according to Cheng and Prusoff (Cheng et al., Biochem. Pharmacol., 22: 3099-3108 ([…])).

For experiment [2], the target named is T2, μ-opioid receptor (Cavia porcellus, UniProt P97266). Nature of the experiment: guinea pig ileum (GPI) bioassay. The class given is cell-based. The conditions noted are these: Table 4. As to the method:
The myenteric plexus longitudinal muscle preparations (2-3 cm segments) from the small intestine of male Hartley strain guinea pigs (GP1) measured μ-opioid receptor agonism and a single mouse vas deferens (MVD) was used to determine δ-opioid receptor agonism as described in Sasaki et al. Bioorg. […] The isolated tissues were suspended in organ baths containing balanced salt solutions in a physiological buffer, pH 7.5. Agonists were tested for the inhibition of electrically evoked contraction and expressed as IC50 (nM) obtained from the dose-response curves.

Experiment [3] addresses T3, δ-opioid receptor (Mus musculus, UniProt P32300).
T3 construct: from tissue; host or cells: isolated mouse vas deferens
Nature of the experiment: mouse vas deferens (MVD) bioassay. The class given is cell-based. The note with it: Table 4. From the text:
Bioorg. Med. Chem., 11: 675-678 (2003). The isolated tissues were suspended in organ baths containing balanced salt solutions in a physiological buffer, pH 7.5. […]

The target in experiment [4] is T4, μ-opioid receptor (Rattus norvegicus, UniProt P33535).
T4 construct: from tissue; host or cells: rat brain P2 synaptosomal membranes (Sprague-Dawley)
T4 sequence (P33535 whole entry): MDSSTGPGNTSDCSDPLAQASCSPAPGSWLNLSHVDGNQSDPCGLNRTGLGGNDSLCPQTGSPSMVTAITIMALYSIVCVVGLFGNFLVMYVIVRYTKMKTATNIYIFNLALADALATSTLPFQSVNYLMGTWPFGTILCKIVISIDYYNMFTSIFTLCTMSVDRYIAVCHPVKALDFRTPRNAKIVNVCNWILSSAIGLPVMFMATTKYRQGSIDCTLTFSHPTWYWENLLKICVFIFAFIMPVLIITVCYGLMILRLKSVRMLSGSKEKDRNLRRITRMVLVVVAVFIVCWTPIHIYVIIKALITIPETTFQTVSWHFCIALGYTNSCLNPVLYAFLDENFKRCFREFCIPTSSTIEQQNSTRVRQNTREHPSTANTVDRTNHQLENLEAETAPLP
Nature of the experiment: opioid receptor binding competition assay, rat brain P2 synaptosomal membranes (μ). The conditions noted are these: Table 3. The method, then: as §1

Experiment [5] relates to morphine-induced analgesia. Nature of the experiment: inhibition of morphine-induced analgesia after intracerebroventricular administration. The class given is in vivo. The note with it: mice.
Experiment [6] concerns the target T4, μ-opioid receptor. The conditions noted are these: Table 3, reference rows marked e, f, cited from earlier work; for Ki: g (no SE, no n); for Ki(δ)/Ki(μ): g.
Experiment [7] deals with T1, δ-opioid receptor. The note with it: Table 3; reference rows marked e, f, g (no SE, no n); cited from earlier work.
Experiment [8] addresses T2, μ-opioid receptor. The note with it: Table 2; reference value marked 6a; cited from earlier work.
The target in experiment [9] is T3, δ-opioid receptor. The conditions noted are these: Table 2; reference value marked 6a; cited from earlier work.

Read-outs that look alike come from different tables or passages of the source.

T3 sequence (P32300 whole entry): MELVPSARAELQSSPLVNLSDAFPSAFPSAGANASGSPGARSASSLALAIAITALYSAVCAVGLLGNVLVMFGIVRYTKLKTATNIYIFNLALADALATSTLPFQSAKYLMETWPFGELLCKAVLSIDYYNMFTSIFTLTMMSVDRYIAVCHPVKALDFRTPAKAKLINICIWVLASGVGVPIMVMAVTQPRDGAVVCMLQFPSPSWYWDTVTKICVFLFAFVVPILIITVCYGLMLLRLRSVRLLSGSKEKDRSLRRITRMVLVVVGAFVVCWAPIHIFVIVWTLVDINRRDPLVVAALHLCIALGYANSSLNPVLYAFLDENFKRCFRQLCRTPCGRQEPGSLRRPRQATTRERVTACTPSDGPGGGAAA
T1 sequence (P33533 whole entry): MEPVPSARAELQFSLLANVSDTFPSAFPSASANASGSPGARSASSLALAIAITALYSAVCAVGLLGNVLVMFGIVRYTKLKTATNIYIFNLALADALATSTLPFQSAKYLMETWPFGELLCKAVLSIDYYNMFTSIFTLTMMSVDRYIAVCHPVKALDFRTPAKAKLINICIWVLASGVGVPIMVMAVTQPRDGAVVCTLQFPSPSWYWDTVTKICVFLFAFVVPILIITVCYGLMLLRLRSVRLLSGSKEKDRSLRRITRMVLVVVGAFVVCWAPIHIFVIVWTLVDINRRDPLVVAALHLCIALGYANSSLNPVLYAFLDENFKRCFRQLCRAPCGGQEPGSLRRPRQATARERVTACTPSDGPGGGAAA
T2 sequence (P97266 whole entry, looked up): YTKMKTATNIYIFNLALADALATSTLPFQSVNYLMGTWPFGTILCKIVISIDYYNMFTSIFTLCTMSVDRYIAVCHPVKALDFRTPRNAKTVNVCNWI

On to `C=CCNC(Cc1c(C)cc(O)cc1C)C(=O)NCCCCCCNC(=O)C(Cc1c(C)cc(O)cc1C)NCC=C` (centres unmarked) [Compound 33, Bis-[(N-allyl)Dmt-NH]hexyl], for which the Ki (usually a dissociation constant, usually derived from enzyme kinetics or from competition with a known ligand) on δ-opioid receptor [1] was 77.8 ± 14 nM; at μ-opioid receptor [4] (versus [3H]DAMGO, rat brain synaptosomes, read-out: Ki(μ)) it was 6.94 ± 1.4 nM. Besides, the IC50 was greater than 10000 nM at μ-opioid receptor [2] (agonism, read-out: GPI) and greater than 10000 nM on δ-opioid receptor [3] (agonism, read-out: MVD). Besides, at μ-opioid receptor [2] (selectivity of antagonism), the “pA2(μ)/pA2(δ)” value is reported as 2.5. Besides, the “GPI pA2” value on μ-opioid receptor [2] (μ antagonism) came to 7.23. Moreover, on δ-opioid receptor [3] (δ antagonism), the “MVD pA2” value stood at 6.83. For the same compound, at μ-opioid receptor [4] (selectivity ratio), the “Ki(δ)/Ki(μ)” value was 11. In addition, the “inhibition of morphine-induced analgesia” value in [5] was “inhibit morphine-induced analgesia”.

For `Cc1cc(O)cc(C)c1CC(N)C(=O)NCCCc1cnc(CCCNC(=O)C(N)Cc2c(C)cc(O)cc2C)c(=O)[nH]1` (centres unmarked) [Compound 37, 3,6-Bis-[Dmt-NH-propyl]pyrazinone], on μ-opioid receptor [6], the Ki is 0.042 nM and the “Ki(δ)/Ki(μ)” value is 307. In addition, the Ki on δ-opioid receptor [7] is 13.2 nM.

Consider `Cc1cc(O)cc(C)c1C[C@H](N)C(=O)NCCCCCCNC(=O)[C@@H](N)Cc1c(C)cc(O)cc1C` [H-Dmt[NH—(CH2)6—NH]Dmt-H], for which the “Ki(δ)/Ki(μ)” value on μ-opioid receptor [6] was 870.

Turning to `Oc1ccc2c3c1O[C@H]1c4[nH]c5ccccc5c4C[C@@]4(O)[C@@H](C2)N(CC2CC2)CC[C@]314` [Naltrindole], on μ-opioid receptor [8], the “GPI Antagonist pA2” value is 7.3 and the “GPI Antagonist pA2 (nM), value in parentheses (Ke)” value was 50 nM. Besides, at δ-opioid receptor [9], the “MVD Antagonist pA2” value was 9.2 and the “MVD Antagonist pA2 (nM), value in parentheses (Ke)” value was 0.631 nM.

On to H-Dmt-Pro-Phe-Phe-NH2 [[Dmt^1]EM-2], for which, at μ-opioid receptor [6], the Ki is 0.15 nM and the “Ki(δ)/Ki(μ)” value is reported as 188. The Ki at δ-opioid receptor [7] was 28.2 nM.

Source of the values: patent US8030341B2, “Dmt-derivative compounds and related compositions and methods of use” (priority 2005, dated 2011).
